Experimental data published in patent US8697683B2, “Azetidinyl diamides as monoacylglycerol lipase inhibitors” (Janssen Pharmaceutica, NV, priority 2009, dated 2014).

Legend:
[1] = murine model of acute inflammation; cited from earlier work
[2] = system: CFA induced paw pressure hypersensitivity; experiment: CFA-Induced Paw Pressure Hypersensitivity; assay type: in vivo; details: rat, dose 30, s.c., HPβCD vehicle, time 1 h
Method: Prior to testing, rats were acclimated to the handling procedure twice a day for a period of two days. […] The endpoint was automatically reached upon hindpaw withdrawal, and the terminal force was noted (in grams). An initial (baseline) response threshold to the mechanical stimulus was recorded for each animal prior to the injection of complete Freund's adjuvant (CFA). Forty hr following intraplantar CFA injection, the response threshold of the animal to the mechanical stimulus was re-evaluated and compared to the animal's baseline response threshold. A response was defined as a withdrawal of the hindpaw, a struggling to remove the hindpaw or vocalization. […] Immediately following the post-CFA threshold assessment, rats were administered the indicated test compound or vehicle. Post-treatment withdrawal thresholds were assessed at 1 h. Paw withdrawal thresholds were converted to percent reversal of hypersensitivity according to the following formula: % reversal=[(post treatment response−predose response)/(baseline response−predose response)]×100.

tactile allodynia = experiment: Spinal Nerve Ligation (SNL) Model of Neuropathic Pain-Tactile Allodynia Test; assay type: in vivo, rat; details: L5 SNL rats, 30 mg/kg p.o., HPβCD vehicle, last time point 4 h
Source text: For lumbar 5 (L5) spinal nerve ligation (SNL) studies, anesthesia was induced and maintained on isoflurane inhalation. Fur was clipped over the dorsal pelvic area, and a 2-cm skin incision was made just left of midline over the dorsal aspect of the L4-S2 spinal segments, followed by separation of the paraspinal muscles from spinous processes. The transverse process of L6 was then carefully removed, and the L5 spinal nerve was identified. The left L5 spinal nerve was then ligated tightly with 6-0 silk thread, the muscle was sutured with 4-0 vicryl, and the skin was closed with wound clips. Following surgery, s.c. saline (5 mL) was administered. Behavioral testing was performed four weeks post-ligation. Following baseline von Frey determinations to verify the presence of mechanical allodynia, L5 SNL rats were orally administered the indicated vehicle or drug. […] which the paw ipsilateral to the nerve ligation was withdrawn from the application of a series of calibrated von Frey filaments (0.4, 0.6, 1.0, 2.0, 4, 6, 8 and 15 g; Stoelting; Wood Dale, Ill.). Beginning at an intermediate stiffness (2.0 g), filaments were applied to the mid-plantar hind paw for approximately 5 seconds. to determine the response threshold, a brisk paw withdrawal led to the presentation of the next lighter stimulus, whereas a lack of a withdrawal response led to the presentation of the next stronger stimulus. A total of four responses after the first threshold detection were collected. The 50% withdrawal thresholds were interpolated by the method of Dixon, Efficient analysis of experimental observations. Annu. Rev. Pharmacol. […] Neurosci. […] Threshold data from von Frey filament testing were reported as withdrawal threshold in grams. Data were normalized and results are presented as % MPE (maximum possible effect) of the drug calculated according to the following formula: [formula]

[3] = system: CCI-induced cold hypersensitivity; experiment: Chronic Constriction Injury (CCI)-Induced Model of Neuropathic Pain-Cold Acetone-Hypersensitivity Test; assay type: in vivo; details: Sprague-Dawley rats, 30 mg/kg p.o., HPβCD vehicle, last time point 4 h
Method: Fourteen to 35 days following CCI surgery, subjects were placed in elevated observation chambers containing wire mesh floors, and five applications of acetone (0.05 mL/application separated by about 5 min) were spritzed onto the plantar surface of the paw using a multidose syringe. An abrupt withdrawal or lifting of the paw was considered a positive response. The number of positive responses was recorded for each rat over the five trials. Following baseline withdrawal determinations, compounds were administered in the indicated vehicle, by the indicated route (see Table 6). The number of withdrawals was re-determined 1 to 4 h after compound administration.

SMILES | antinociceptive effect [1] | percent reversal [2] | peak % MPE (tactile allodynia) | peak percent inhibition [3]
O=C(Nc1cccc(-c2ccccc2)c1)OC1CCCCC1 [URB602] | showed an antinociceptive effect |  |  | 
O=C(c1ccc2c(ccn2-c2ccc(F)c(F)c2)c1)N1CC(N2CCN(C(=O)c3nccs3)CC2)C1 [Cpd 1362, 1-(3,4-Difluorophenyl)-5-({3-[4-(1,3-thiazol-2-ylcarbonyl)piperazin-1-yl]azetidin-1-yl}carbonyl)-1H-indole] |  | 56.7% | 84.3% | 
O=C(c1ccc2c(ccn2-c2ccc(F)cc2)c1)N1CC(N2CCN(C(=O)c3nccs3)CC2)C1 [Cpd 487, 1-(4-Fluorophenyl)-5-({3-[4-(1,3-thiazol-2-ylcarbonyl)piperazin-1-yl]azetidin-1-yl}carbonyl)-1H-indole] |  | 61.8% | 61.2% | 100%
O=C(c1ccccc1)N1CCN(C2CN(C(=O)c3ccc(-c4ccccc4)cc3)C2)CC1 [Cpd 5, 1-[1-(Biphenyl-4-ylcarbonyl)azetidin-3-yl]-4-(phenylcarbonyl)piperazine] |  |  |  | 26.7%
